Measurements published in article PMC3988658 (Pathogens and disease, 2014).
Starred links: 1 amine or outer side, 2 acyl side, 3 side chain; linkers in the order of their positions; H or OH if unused. Positions of bridges follow the written chain, without caps; N, C: chain ends. Non-standard residues stand in square brackets, D forms with d. Residues, ends and D or L forms follow the SMILES beside them. *: point of attachment. Ileψ(thiazoline)Cys = CC[C@H](C)[C@H](N)C1=N[C@H](C(=O)*)CS1; X2 = CCC(=O)CC(O)C[C@@H](C)C[C@H](N[*:1])C(=O)[*:2]; Alaψ(CH2NMeCH2CH2OH) = C[C@@H](CN(C)CCO)N*; dOrn = NCCC[C@@H](N)C(=O)O; X1 = CCCCCCCCC(C)C(=O)*; Aib = CC(C)(N)C(=O)O

Columns and labels:
[1] = tested on: C. albicans wild-type strain SC5314 biofilm formation; assay: microbe, parasite or virus in culture; format: cell-based, Candida albicans; settings: for IC50: SC5314, 24 h; for Inhibition of biofilm formation: NCI Natural set, dose response
[2] = in vitro; settings: human
[3] = tested on: C. albicans; settings: cited from earlier work
[4] = tested on: C. albicans tet-NRG1 strain filamentation; format: cell-based, Candida albicans; settings: YPD plus DOX, dose response
[5] = tested on: Human hepatocellular carcinoma (HepG2) cells

CCCCCCCCC(C)C(=O)N1CCC[C@H]1C(=O)N[C@@H](C[C@H](C)CC(O)CC(=O)CC)C(=O)N[C@@H](C)C(=O)NC(C)(C)C(=O)NC(C)(C)C(=O)N[C@H](C(=O)N[C@@H](C)C(=O)NC(C)(C)C(=O)NC(C)(C)C(=O)N[C@@H](C)CN(C)CCO)C(C)C (stereo partly drawn) [Compound 19, Trichopolyn-B] (X1-P[X2]A[Aib][Aib]VA[Aib][Aib]-{Alaψ(CH2NMeCH2CH2OH)}; N-terminus and C-terminus assumed)
IC50 [1]: 0.666 µM | CC50 [2]: 2.99 µM

N#Cc1cn([C@@H]2O[C@H](CO)[C@@H](O)[C@H]2O)c2ncnc(N)c12 [Compound 23, Vengicide (Unamycin B, Toyocamycin)]
IC50 ([1]; Candida albicans): 1.04 µM | CC50 [2]: < 1.56 µM

CC(C)[C@@H]1NC(=O)[C@H](C)OC(=O)[C@@H](C(C)C)NC(=O)[C@@H](C(C)C)OC(=O)[C@H](C(C)C)NC(=O)[C@H](C)OC(=O)[C@@H](C(C)C)NC(=O)[C@@H](C(C)C)OC(=O)[C@H](C(C)C)NC(=O)[C@H](C)OC(=O)[C@@H](C(C)C)NC(=O)[C@@H](C(C)C)OC1=O [Compound 6, Valinomycin]
Inhibition of biofilm formation [1]: inhibited biofilm formation only | Inhibition of hyphal growth ([3]; C. albicans, ref Watanabe, Azuma, Igarashi & Ooshima, 2005): inhibit hyphal growth | CC50 [2]: 2.87 µM

Nanaomycin [Compound 3]
Inhibition of filamentation [4]: inhibited filamentation in a dose-response manner

CC(=O)O[C@@H]1C[C@H]2O[C@@H]3C=C(C)CC[C@]3(C)[C@]1(C)[C@]21CO1 [Compound 1, Trichoderonin]
Inhibition of filamentation [4]: inhibited filamentation in a dose-response manner

CO[C@H]1C[C@@H]2CC[C@@H](C)[C@@](O)(O2)C(=O)C(=O)N2CCCC[C@H]2C(=O)O[C@H]([C@H](C)C[C@@H]2CC[C@@H](O)[C@H](OC)C2)CC(=O)[C@H](C)/C=C(\C)[C@@H](O)[C@@H](OC)C(=O)[C@H](C)C[C@H](C)/C=C/C=C/C=C/1C [Compound 5, Rapamune (rapamycin, sirolimus)]
IC50 ([1]; Candida albicans): 0.514 µM | Inhibition of filamentation [4]: inhibited filamentation in a dose-response manner | Effect on the morphogenic transition ([3]; most liquid hypha-inducing media, ref Bastidas, Heitman & Cardenas, 2009): no effect on the morphogenic transition

CCCCCCCCCCCCCCC[C@@H](O)C[N+](C)(C)CCO [Compound 21, 2-hydroxyethyl-[(2R)-2-hydroxyheptadecyl]-dimethylazanium;iodide]
CC50 [5]: 10 µM

CCCCCCCCCCCCCCC(O)C[N+](C)(CCO)CCO (stereo not drawn) [Compound 29, Hexadecanaminium, 2-hydroxy-N,N-bis(2-hydroxyethyl)-N-methyl-, chloride]
CC50 [5]: 13.9 µM

CCN(CC)CCN1c2ccccc2Sc2ccc3ccccc3c21 [Compound 14, 2-benzo[a]phenothiazin-12-yl-N,N-diethylethanamine]
IC50 ([1]; Candida albicans): 3.8 µM

CC(NCCN(C)C)C1CCC2C3CCc4cc(O)ccc4C3CCC12C (stereo not drawn) [Compound 8, 17-[1-[2-(dimethylamino)ethylamino]ethyl]-13-methyl-6,7,8,9,11,12,14,15, 16,17-decahydrocyclopenta[a]phenanthren-3-ol]
IC50 ([1]; Candida albicans): 0.0097 µM | CC50 at 24 h [2]: 8.08 µM

CC[C@H](C)[C@H](N)C1=N[C@H](C(=O)N[C@@H](CC(C)C)C(=O)N[C@H](CCC(=O)O)C(=O)N[C@H](C(=O)N[C@H]2CCCCNC(=O)[C@H](CC(N)=O)NC(=O)[C@@H](CC(=O)O)NC(=O)[C@H](Cc3c[nH]cn3)NC(=O)[C@@H](Cc3ccccc3)NC(=O)[C@H]([C@@H](C)CC)NC(=O)[C@@H](CCCN)NC2=O)[C@@H](C)CC)CS1 [Compound 4, Bacitracin] ({Ileψ(thiazoline)Cys}-L[dE]IK[dOrn]I[dF]H[dD]N; lactam 4-C; N-terminus assumed)
Inhibition of biofilm formation [1]: inhibited biofilm formation only | IC50 [1]: 2.13 µM

CC1OC(CC(=O)O)Cc2c(O)c3c(c(O)c21)C(=O)C=C(C1=CC(=O)c2c(O)c4c(c(O)c2C1=O)CC(CC(=O)O)OC4C)C3=O (stereo not drawn) [Compound 13, 2-[7-[3-(carboxymethyl)-5,10-dihydroxy-1-methyl-6,9-dioxo-3,4-dihydro-1H-benzo[g]isochromen-7-yl]-5,10-dihydroxy-1-methyl-6,9-dioxo-3,4-dihydro-1H-benzo[g]isochromen-3-yl]acetic acid]
IC50 ([1]; Candida albicans): 3.31 µM

COc1ccc(C[C@H]2NC[C@H](O)[C@H]2OC(C)=O)cc1 [Compound 2, Anisomycin]
Inhibition of biofilm formation [1]: inhibited biofilm formation only

CC[C@H](C)[C@H](N)C1=N[C@H](C(=O)N[C@@H](CC(C)C)C(=O)N[C@H](CCC(=O)O)C(=O)N[C@H](C(=O)N[C@H]2CCCCNC(=O)[C@H](CC(N)=O)NC(=O)[C@@H](CC(=O)O)NC(=O)[C@H](Cc3cnc[nH]3)NC(=O)[C@@H](Cc3ccccc3)NC(=O)[C@H]([C@@H](C)CC)NC(=O)[C@@H](CCCN)NC2=O)[C@@H](C)CC)CS1 [Compound 4, Bacitracin] ({Ileψ(thiazoline)Cys}-L[dE]IK[dOrn]I[dF]H[dD]N; lactam 4-C (inferred))
CC50 at 24 hr [2]: > 100 µM

COc1cc2cc(C(=O)N3CC(COS(C)(=O)=O)c4ccc(O)cc43)[nH]c2c(OC)c1OC (stereo not drawn) [Compound 27, 6-Hydroxy-3-((methanesulfonyloxy) Methyl)-1-((5,6,7-trimethoxyindol-2-yl)carbonyl)indoline]
IC50 ([1]; Candida albicans): 0.495 µM | CC50 [2]: < 1.56 µM
